As usually defined, the Kd is a measure of binding affinity in units of concentration.

The structures appear in SMILES notation.

From the AptaBench aptamer set (doi:10.1093/nar/gkaf219) come the findings set out here.

Conditions in all cases: 10 mM Tris-HCl, pH 7.4
Assay [1] has as its system DNA aptamer or structured DNA CTTACGACAGGTTCTGAGGAATCAACGTCGGTGTAGTTGTCGTAAG
Assay [2] has as its system DNA aptamer or structured DNA CTTACGACAGTAACGGTGGGTATATGGGATTTATGTTCGTCGTAAG
In assay [3] the test system is DNA aptamer or structured DNA CTTACGACCAGGCCTACGGAAGCAGCGTCAGCGGGGGGGTCGTAAG
In assay [4] the test system is DNA aptamer or structured DNA CTTACGACCGACTTTTGGGTGTTCTGGGTGGGATGTGGGTCGTAAG
In assay [5] the test system is DNA aptamer or structured DNA CTTACGACCTAAGGGTCTGGAGTGGTTGTTATACGCTGGTCGTAAG
Assay [6] has as its system DNA aptamer or structured DNA GGGACGACAGCTTGGTTTGGTCGGGGTAGGGTTCGGATGTCGTCCC
Assay [7] concerns DNA aptamer or structured DNA GGGACGACAGGGCACGTCTCGGCATCGAGGGTTTCGCGGTCGTCCC
Assay [8] relates to DNA aptamer or structured DNA GGGACGACCGCGTAGGGGAACACGCTTGCAGGGCTGAGGTCGTCCC
For assay [9], the system named is DNA aptamer or structured DNA GGGACGACGCCGGCTTTTAGGGGGGGTGTGGGTGGCGAGTCGTCCC
In assay [10] the test system is DNA aptamer or structured DNA GGGACGACGGCACGAGGTTATTCGTTGGTTGCACTGCGCTGGGAGGCAGTCGTCCC
Assay [11] deals with DNA aptamer or structured DNA GGGACGACGGGAAGGTTGGCAGCGCATCGTCGGGTCACGTCGTCCC
The subject of assay [12] is DNA aptamer or structured DNA GGGACGACGGGGGGAGTAATGTTTGTGTGGGGGAGCCGGTCGTCCC
The test system of assay [13] is DNA aptamer or structured DNA GGGACGACGGTACCCGCCGGTGCAGGATCTGGGGTGGTGTCGTCCC
The test system of assay [14] is DNA aptamer or structured DNA GGGACGACGGTTGGCATTGGGTCGGGTGTGGGTGCGGCGTCGTCCC
The subject of assay [15] is DNA aptamer or structured DNA GGGACGACTACAGGTCGTGCGTCGCTCGAGTTGGTGAGTGTGTCGTCCC
The test system of assay [16] is DNA aptamer or structured DNA GGGACGACTAGCCCTAGCGTTGTTCGAGTCCATGAGTAGTCGTCCC
Assay [17] deals with DNA aptamer or structured DNA TTCAAATCTAGCGCAGGTAGGGGTGTAGGCGTGGGGGTAAGTCTAGATTTGAA
Assay [18] deals with DNA aptamer or structured DNA TTCAAATCTTGCGAATTGGACTCAGAATGTGGGTTTGCCAGTCTAGATTTGAA
The test system of assay [19] is DNA aptamer or structured DNA CTTACGACGGGTTCAGAGGGTCAACGGTGGTGTTGTCGTCGTAAG
Assay [20] concerns DNA aptamer or structured DNA CTTACGACTAGGTGGGGGTCGGCGCCGTAGGTGGGGTAGTCGTAAG
Assay [21] concerns DNA aptamer or structured DNA CTTACGACTTACTTTTGGGTTGTCTGGGTGGGAGGTATGTCGTAAG
In assay [22] the test system is DNA aptamer or structured DNA GGGACGACAAGTACCAAGGGTAGCTCTGCGTTGTTCGAGGTCGTCCC
The test system of assay [23] is DNA aptamer or structured DNA GGGACGACCGTTGGCGAGTGTGTCCGGGGACTACAGGGGTCGTCCC
Assay [24] relates to DNA aptamer or structured DNA GGGACGACGAGGGCACGTCTGTGTGCAGGGTTTCGCGCGTCGTCCC
Assay [25] deals with DNA aptamer or structured DNA GGGACGACGCGTAGGTTCCCTAGCTGTGCGTCGTTCAAGTCGTCCC
Assay [26] has as its system DNA aptamer or structured DNA GGGACGACTAGCCCGGCGTTGTTCGAGTGCAGCGAGTAGTCGTCCC
For assay [27], the system named is DNA aptamer or structured DNA GGGACGACTAGCCGCGCGTTGTCCGACCCTTGGAAGTAGTCGTCCC
Assay [28] relates to DNA aptamer or structured DNA GGGACGACTAGCCGTGGCGTTGTTCGAGTGCAGCGAGTAGTCGTCCC
For assay [29], the system named is DNA aptamer or structured DNA GGGACGACGGCTTAGCAAAGCTAGTAGGGGTCCACGCTGTCGTCCC
The test system of assay [30] is DNA aptamer or structured DNA GGGACGACTACGTAGCCCTGTCTCAGCGAGTTCGCGGAGTCGTCCC
Assay [31] has as its system DNA aptamer or structured DNA CTTACGACTAGGTGTGGGTCGGCGCTAGGGGCAGGGTAGTCGTAAG
In assay [32] the test system is DNA aptamer or structured DNA GGGACGACCGTCCGAGTTTTAGGAGTGGTTGCATTGCGCTGGGAAGAGGTCGTCCC
The test system of assay [33] is DNA aptamer or structured DNA GGGACGACGGCACGAGGTTATTCGTTGGTTGCACTGCGCTGGGAGGAAGTCGTCCC
The subject of assay [34] is DNA aptamer or structured DNA TTCAAATCTGCGGCGACTAATTCTTAGTGGTGGTTGCAATGCGCTGGGATGAGTCTAGATTTGAA
Throughout, for binding call: call rule not given here.

On to `CCN(CC)CCOC(=O)c1ccc(N)cc1`, for which the binding call was “no binding” in assay [1]; “no binding” in [2]; “no binding” in assay [3]; “no binding” in assay [4]; “no binding” in assay [5]; “binds” in assay [6]. For the same compound, the binding call in assay [7], in [8], in assay [9], in assay [10], in assay [11] and in assay [12] was “no binding” throughout. Besides, the binding call is “binds” in [13]; “binds” in assay [14]; “no binding” in assay [15]; “no binding” in assay [16]; “no binding” in assay [17]; “no binding” in assay [18].

For the compound `CC(=O)Oc1ccc2c3c1O[C@H]1[C@@H](OC(C)=O)C=C[C@H]4[C@@H](C2)N(C)CC[C@@]341`, the binding call in assay [3], in assay [4], in assay [5], in assay [19], in assay [20] and in [21] was “no binding” each time. Moreover, the binding call in [9] and in [14] was “no binding” throughout. The Kd in [22] is 2.18 µM; in assay [7] it was 4.74 µM; in [23], 1.61 µM; in assay [24], 3.76 µM; in assay [25], 3.4 µM; in assay [11] it was 2.4 µM. For the same compound, the dissociation constant Kd in assay [26] is 2.39 µM; in assay [16] it was 3.31 µM; in assay [27], 3.11 µM; in [28] it was 2.11 µM.

Take `COc1ccc2c3c1O[C@H]1C(=O)CC[C@@]4(O)[C@@H](C2)N(C)CC[C@]314`: the binding call in [1], in assay [5], in assay [20], in assay [21], in assay [9] and in assay [14] was “no binding” in each case. Moreover, the binding call in assay [17] is “no binding”. In addition, the Kd worked out at 0.9 µM in assay [29], 1.19 µM in assay [12] and 1.15 µM in [30].

`OC[C@@H](O)[C@@H](O)[C@H](O)[C@H](O)CO`: the binding call in assay [3], in [31], in assay [8], in [23], in assay [29] and in assay [12] was “no binding” in each case. In addition, the binding call in assay [30] and in assay [16] was “no binding” each time.

For `O=C1CC[C@@]2(O)[C@H]3Cc4ccc(O)c5c4[C@@]2(CCN3CC2CC2)[C@H]1O5`, the binding call was “no binding” in assay [22]; “no binding” in [6]; “no binding” in assay [8]; “binds” in assay [24]; “no binding” in assay [29]; “no binding” in assay [11]. Moreover, the binding call in [15], in assay [30], in assay [26], in assay [16], in assay [27] and in assay [28] was “no binding” throughout.

Turning to `COC(=O)[C@@H]1C2CCC(C[C@@H]1OC(=O)c1ccccc1)N2C` (stereo not given in full), the Kd was determined as 0.022 µM in assay [1]; 0.282 µM in assay [2]; 0.218 µM in assay [5]; 0.049 µM in [19]; 0.467 µM in [20]; 0.315 µM in assay [31]. The Kd in assay [21] was determined as 0.249 µM. The binding call is recorded as “binds” in assay [6]; “no binding” in assay [7]; “no binding” in assay [23]; “no binding” in [24]; “no binding” in assay [9]; “no binding” in assay [12]. In addition, the binding call is reported as “no binding” in [13]; “binds” in assay [14]; “no binding” in assay [30]; “no binding” in assay [16]; “no binding” in [28]; “no binding” in assay [18].

Take `C=CCN1CC[C@]23c4c5ccc(O)c4O[C@H]2C(=O)CC[C@@]3(O)[C@H]1C5`: the binding call in assay [22], in [7], in assay [8], in assay [23], in assay [24] and in assay [25] was “no binding” throughout. Further, the binding call in [29] is “binds”; in assay [12], “no binding”; in [15] it was “no binding”; in assay [30] it was “no binding”; in [26], “no binding”; in [16] it was “no binding”. The binding call in [28] is given as “no binding”.

For the compound `C=C[C@H]1CN2CC[C@@H]1C[C@H]2[C@H](O)c1ccnc2ccc(OC)cc12`, the binding call in [1], in assay [3], in assay [4], in [20], in [22] and in assay [6] was “no binding” throughout. Further, the binding call in assay [7] was “no binding”; in assay [8], “no binding”; in assay [32], “binds”; in assay [24] it was “no binding”; in assay [33], “binds”; in assay [10], “binds”. Further, the binding call in assay [11] is on record as “no binding”; in assay [12] it was “no binding”; in assay [13], “binds”; in [14], “no binding”; in assay [34], “binds”.
